Converted amounts (≈) assume the structure as drawn. The source made the active and inactive calls. The rule behind the calls is not given here.
Experiments:
[1] = Metabolic stability in dog liver microsomes assessed as intrinsic clearance at 1 uM and measured upto 15 mins in presence of NADPH regenerating system by LC-MS/MS analysis; format: ADME, Canis lupus familiaris, Microsome; details: read-out: CLH
[2] = Metabolic stability in human liver microsomes assessed as intrinsic clearance at 1 uM and measured upto 15 mins in presence of NADPH regenerating system by LC-MS/MS analysis; format: ADME, Microsome; details: read-out: CLH
[3] = Metabolic stability in dog liver microsomes assessed as M3 metabolite formation at 1 uM and measured upto 15 mins in presence of NADPH regenerating system by LC-MS/MS analysis; format: ADME, Canis lupus familiaris, Microsome; details: 0.25 h
hERG (KCNH2) = hERG (KCNH2) (Homo sapiens, UniProt Q12809); test: (§1) Inhibition of human ERG K+ currents by GLP assay; format: toxicity; details: human
[4] = target: Voltage-gated inwardly rectifying potassium channel KCNH2 (Homo sapiens, UniProt Q12809); test: as §1; format: toxicity
Mus musculus [5] = test: Antiinflammatory activity against LPS-induced DBA/1 mouse model assessed as reduction in CXCR3+ CD8+ T cells infiltration into BAL at 0.02 microg/g, po preincubated for 3 days followed by LPS stimulation for 30 mins and measured after 3 days by flow cytometry; format: functional, T-cell; design: scale not given: the % may be the effect or the level left; details: dose 0.02 µg/g, time 6 day
[6] = target: Chemerin-like receptor 1 (Homo sapiens) (UniProt Q99788); test: Binding affinity to ChemR23 (unknown origin) at 10 uM by radioligand binding assay
[7] = Volume of distribution at steady state in Wistar rat at 3 mg/kg,iv or 3 mg/kg, po; format: ADME, organism-based; details: in vivo, read-out: Vdss
[8] = Apparent permeability across apical to basolateral side in dog MDCK-II cells; format: ADME, cell-based, Canis lupus familiaris
[9] = Volume of distribution at steady state in Cynomolgus monkey at 1.0 mg/kg,iv or 1.25 mg/kg, po; format: ADME, organism-based, Macaca fascicularis; details: in vivo, read-out: Vdss
[10] = Cmax in Wistar rat at 3 mg/kg,iv or 3 mg/kg, po; format: ADME, organism-based; design: dose 3 mg/kg, route iv; details: in vivo
[11] = target: C3a anaphylatoxin chemotactic receptor (Homo sapiens) (UniProt Q16581); test: Binding affinity to C3aR1 (unknown origin) at 10 uM by radioligand binding assay
[12] = Cmax in LPS-induced DBA/1 mouse plasma at 0.02 microg/g, po bid preincubated for 3 days followed by LPS stimulation for 30 mins and measured after 72 hrs by flow cytometry; format: ADME, organism-based; design: time 6 day, dose 0.02 µg/g, route po; details: 0.02 µg/g
[13] = target: T1, C-X-C chemokine receptor type 3 (Homo sapiens, UniProt P49682); test: Antagonist activity at CXCR3 in human whole blood assessed as receptor internalization incubated for 30 mins in presence of CXCL10 by flow cytometric analysis; format: tissue-based
T1 sequence (P49682 whole entry): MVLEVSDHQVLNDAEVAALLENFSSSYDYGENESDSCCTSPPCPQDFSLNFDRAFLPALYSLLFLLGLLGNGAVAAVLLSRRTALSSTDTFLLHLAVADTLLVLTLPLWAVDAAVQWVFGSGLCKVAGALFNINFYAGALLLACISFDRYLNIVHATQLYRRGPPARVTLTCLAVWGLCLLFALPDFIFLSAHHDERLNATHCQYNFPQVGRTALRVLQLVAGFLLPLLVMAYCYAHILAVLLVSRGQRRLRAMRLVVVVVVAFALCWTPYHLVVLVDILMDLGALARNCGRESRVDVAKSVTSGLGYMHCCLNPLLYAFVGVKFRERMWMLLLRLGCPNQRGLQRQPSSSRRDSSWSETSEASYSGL

Mus musculus [14] = test: Antiinflammatory activity against LPS-induced DBA/1 mouse model assessed as reduction in CXCR3+ CD8+ T cells infiltration into BAL at 0.006 to 2 microg/g, po bid preincubated for 3 days followed by LPS stimulation for 30 mins and measured after 3 days by flow cytometry; format: functional, organism-based; details: T-cell, dose 0.006-2 µg/g, time 6.0 day
[15] = target: C-X-C chemokine receptor type 4 (Homo sapiens) (UniProt P61073); test: Binding affinity to CXCR4 (unknown origin) at 10 uM by radioligand binding assay
[16] = Volume of distribution at steady state in Beagle dog at 2.5 mg/kg,iv or 2.5 mg/kg, po; format: ADME, organism-based, Canis lupus familiaris; details: in vivo, read-out: Vdss
[17] = Protein binding in human plasma assessed as fraction unbound at 20 ug/ml using 14C-labeled ligand by rapid equilibrium dialysis; format: ADME, cell-free; details: at 20 µg/mL
[18] = Metabolic stability in rat hepatocytes assessed as intrinsic clearance per 10^6 cells at 1 uM by LC-MS/MS analysis; format: ADME, cell-based, Hepatocyte
[19] = Half life in Cynomolgus monkey at 1.0 mg/kg,iv or 1.25 mg/kg, po; format: ADME, organism-based, Macaca fascicularis; details: in vivo
[20] = Cmax in LPS-induced DBA/1 mouse plasma at 0.006 microg/g, po bid preincubated for 3 days followed by LPS stimulation for 30 mins and measured after 72 hrs by flow cytometry; format: ADME, organism-based; design: dose 0.006 µg/g, time 6 day, route po; details: 0.006 µg/g
[21] = target: T2, C-X-C chemokine receptor type 3 (Mus musculus, UniProt O88410); test: Antagonist activity at mouse CXCR3 expressed in CHO-K1 cells assessed as reduction in CXCL11 induced calcium flux by FLIPR method; format: cell-based
T2 sequence (O88410 whole entry): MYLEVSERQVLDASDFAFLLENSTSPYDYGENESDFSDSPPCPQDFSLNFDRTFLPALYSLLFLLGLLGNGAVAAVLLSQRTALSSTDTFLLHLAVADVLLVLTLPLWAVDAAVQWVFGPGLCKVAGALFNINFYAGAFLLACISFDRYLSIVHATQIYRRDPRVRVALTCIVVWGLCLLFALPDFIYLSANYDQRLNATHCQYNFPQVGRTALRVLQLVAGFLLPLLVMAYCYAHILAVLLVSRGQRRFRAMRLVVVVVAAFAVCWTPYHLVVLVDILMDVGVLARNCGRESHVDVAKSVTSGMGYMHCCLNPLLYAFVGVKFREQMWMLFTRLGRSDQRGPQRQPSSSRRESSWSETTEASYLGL

C3a anaphylatoxin chemotactic receptor (Homo sapiens), sequence (Q16581 whole entry): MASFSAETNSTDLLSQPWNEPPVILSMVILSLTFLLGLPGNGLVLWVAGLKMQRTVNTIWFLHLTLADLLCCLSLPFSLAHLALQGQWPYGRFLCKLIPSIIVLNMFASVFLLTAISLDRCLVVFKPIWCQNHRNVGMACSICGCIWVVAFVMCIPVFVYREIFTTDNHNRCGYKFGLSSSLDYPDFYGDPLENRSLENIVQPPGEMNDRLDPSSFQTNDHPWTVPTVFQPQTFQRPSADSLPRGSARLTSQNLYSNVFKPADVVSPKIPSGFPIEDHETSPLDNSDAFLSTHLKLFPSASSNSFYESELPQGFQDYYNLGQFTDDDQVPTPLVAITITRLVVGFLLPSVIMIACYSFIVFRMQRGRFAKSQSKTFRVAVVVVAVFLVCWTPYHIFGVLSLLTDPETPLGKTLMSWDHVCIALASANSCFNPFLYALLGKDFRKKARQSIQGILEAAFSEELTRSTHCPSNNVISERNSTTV
hERG (KCNH2), sequence (Q12809 whole entry): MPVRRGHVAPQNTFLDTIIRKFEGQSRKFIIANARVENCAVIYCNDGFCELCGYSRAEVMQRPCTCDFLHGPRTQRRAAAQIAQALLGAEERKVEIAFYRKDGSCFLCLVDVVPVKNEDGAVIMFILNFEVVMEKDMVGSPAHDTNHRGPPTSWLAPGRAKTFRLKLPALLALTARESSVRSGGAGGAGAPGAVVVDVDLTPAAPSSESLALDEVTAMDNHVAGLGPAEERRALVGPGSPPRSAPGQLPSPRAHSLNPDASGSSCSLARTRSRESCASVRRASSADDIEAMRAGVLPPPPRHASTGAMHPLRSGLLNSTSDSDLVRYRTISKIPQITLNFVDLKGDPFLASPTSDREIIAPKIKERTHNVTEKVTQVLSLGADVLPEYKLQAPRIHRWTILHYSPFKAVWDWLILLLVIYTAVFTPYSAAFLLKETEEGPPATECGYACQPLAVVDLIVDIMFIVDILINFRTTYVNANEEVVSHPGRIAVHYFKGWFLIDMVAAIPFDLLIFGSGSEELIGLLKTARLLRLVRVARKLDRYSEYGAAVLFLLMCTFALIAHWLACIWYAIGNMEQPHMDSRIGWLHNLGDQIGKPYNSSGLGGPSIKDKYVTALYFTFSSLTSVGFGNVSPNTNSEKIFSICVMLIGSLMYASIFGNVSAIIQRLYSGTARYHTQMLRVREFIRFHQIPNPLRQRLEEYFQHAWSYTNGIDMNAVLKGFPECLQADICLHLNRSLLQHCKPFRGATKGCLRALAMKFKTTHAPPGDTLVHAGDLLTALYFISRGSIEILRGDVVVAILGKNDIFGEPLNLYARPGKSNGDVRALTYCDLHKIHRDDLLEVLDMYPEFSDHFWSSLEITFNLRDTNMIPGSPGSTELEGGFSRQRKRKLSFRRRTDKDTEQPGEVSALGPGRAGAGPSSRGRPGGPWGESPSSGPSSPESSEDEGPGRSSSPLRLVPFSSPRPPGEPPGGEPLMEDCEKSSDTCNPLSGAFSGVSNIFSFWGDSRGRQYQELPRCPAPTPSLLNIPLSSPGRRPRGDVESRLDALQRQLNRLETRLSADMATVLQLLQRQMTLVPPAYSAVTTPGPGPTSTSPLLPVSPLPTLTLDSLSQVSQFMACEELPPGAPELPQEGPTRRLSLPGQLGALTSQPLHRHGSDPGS
Voltage-gated inwardly rectifying potassium channel KCNH2, sequence (Q12809 whole entry): as above
Chemerin-like receptor 1 (Homo sapiens), sequence (Q99788 whole entry): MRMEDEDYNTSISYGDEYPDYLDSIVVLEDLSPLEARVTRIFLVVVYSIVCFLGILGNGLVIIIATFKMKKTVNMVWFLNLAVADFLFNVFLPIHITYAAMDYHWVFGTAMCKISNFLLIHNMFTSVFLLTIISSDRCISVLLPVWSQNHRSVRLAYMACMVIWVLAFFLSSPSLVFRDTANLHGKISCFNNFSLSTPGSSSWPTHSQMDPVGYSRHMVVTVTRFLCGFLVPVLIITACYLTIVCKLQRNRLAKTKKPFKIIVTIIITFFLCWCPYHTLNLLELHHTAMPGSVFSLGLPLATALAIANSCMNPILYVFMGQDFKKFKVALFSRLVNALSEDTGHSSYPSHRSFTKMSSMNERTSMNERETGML
C-X-C chemokine receptor type 4 (Homo sapiens), sequence (P61073 whole entry): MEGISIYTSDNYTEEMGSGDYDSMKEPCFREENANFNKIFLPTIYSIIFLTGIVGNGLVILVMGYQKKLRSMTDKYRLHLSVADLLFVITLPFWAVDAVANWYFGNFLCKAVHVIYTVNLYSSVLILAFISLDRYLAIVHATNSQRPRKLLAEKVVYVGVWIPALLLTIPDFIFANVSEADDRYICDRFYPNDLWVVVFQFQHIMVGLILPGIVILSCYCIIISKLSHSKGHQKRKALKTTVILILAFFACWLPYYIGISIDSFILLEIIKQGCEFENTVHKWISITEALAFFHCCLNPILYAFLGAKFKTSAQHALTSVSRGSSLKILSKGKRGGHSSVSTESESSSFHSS

## Cc1ncn(CC(=O)N2CCN(c3sc(C(F)(F)F)nc3-c3cnc(C(F)(F)F)nc3)C[C@H]2CCO)n1
[1]
  microsomal CLint at 1 µM: < 10 µL/min/mg
[2]
  microsomal CLint at 1 µM: < 10 µL/min/mg
[3]
  Stability: Unstable
hERG (KCNH2)
  IC20: 3 µg/mL (≈ 5.45 µM)
[4]
  IC50: 15400 nM
Mus musculus [5]
  Activity: 70%
[6]
  Activity: inactive
[7]
  Vd: 2.7 L/kg
[8]
  Papp A→B: 1.5 ×10⁻⁶ cm/s
[9]
  Vd: 1.3 L/kg
[10]
  Cmax: 910 ng/mL
[11]
  Activity: inactive
[12]
  Cmax: 173 ng/mL
[13]
  IC50: 56 nM
Mus musculus [14]
  Activity: Dose-Dependent Effect
[15]
  Activity: inactive
[16]
  Vd: 1.5 L/kg
[17]
  fraction unbound at 20 ug/ml: 0.4
[18]
  CLH: < 2 µL/min/mg
[19]
  half-life: 4 h
[20]
  Cmax: 42 ng/mL
[21]
  IC50: 4.4 nM

Source: ChEMBL document CHEMBL5247653, “Discovery of Clinical Candidate ACT-777991, a Potent CXCR3 Antagonist for Antigen-Driven and Inflammatory Pathologies” (J Med Chem, 2023)
